Assay results published in US8168651B2, “Protein kinase modulators” (Cylene Pharmaceuticals, Inc., priority 2008, dated 2012).
Like-named read-outs stand apart in the source and are kept apart here.

Columns and labels:
[1] = test system: Jurkat; experiment: Cell proliferation modulatory activity, Jurkat; format: cell-based; details: Homo sapiens
[2] = test system: K-562; experiment: Cell proliferation modulatory activity, K-562; format: cell-based; details: Homo sapiens, K562
[3] = molecular target: recombinant human PIM1 (Homo sapiens (Human), UniProt P11309); experiment: PIM-1 kinase activity in cell-free in vitro assay; format: biochemical; details: for inhibition at 0.5 µM: 500 nM compound, read-out: PIM-1: % inh 500 nM
[4] = test system: MV-4-11; experiment: Cell proliferation modulatory activity, MV-4-11; format: cell-based; details: Homo sapiens, MV4-11
[5] = test system: HCT-116 human colorectal carcinoma cells; experiment: Cell-proliferation assay using Alamar Blue dye; format: cell-based; details: Homo sapiens;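 further: cells exposed to compound for about 4 days, then Alamar Blue added and dye fluorescence read after about 4 h, compared with medium-only control wells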
[6] = test system: MDAMB231; experiment: MDAMB231 IC50; format: cell-based; details: Homo sapiens, MDA-MB-231; Table 45
[7] = test system: MV-4-11; experiment: Cell proliferation modulatory activity, MV-4-11; format: cell-based; details: Homo sapiens, MV4-11; Table 45; read-out: MV-4-11 IC50
[8] = test system: K-562; experiment: Cell proliferation modulatory activity, K-562; format: cell-based; details: Homo sapiens, K562; Table 45; read-out: K-562 IC50
[9] = test system: phosphoBAD ser 112; experiment: phosphoBAD ser 112 IC50; format: cell-based; details: read-out: phosphoBAD ser 112 IC50; Table 45
[10] = test system: MiaPaca human pancreatic carcinoma cells; experiment: Cell-proliferation assay using Alamar Blue dye; format: cell-based; details: MIA PaCa-2, Table 45
Experimental: A representative cell-proliferation assay protocol using Alamar Blue dye (stored at 4° C., use 20 ul per well) is described hereafter.
• a. Split and trypsinize cells. • b. Count cells using hemocytometer. • c. Plate 4,000-5,000 cells per well in 100 μl of medium and seed into a 96-well plate according to the following plate layout. Add cell culture medium only to wells B10 to B12. Wells B1 to B9 have cells but no compound added.
• d. Add 100 μl of 2× drug dilution to each well in a concentration shown in the plate layout above. At the same time, add 100 μl of media into the control wells (wells B10 to B12). Total volume is 200 μl/well. • e. Incubate four (4) days at 37° C., 5% CO2 in a humidified incubator. • f. Add 20 μl Alamar Blue reagent to each well. • g. Incubate for four (4) hours at 37° C., 5% CO2 in a humidified incubator. • h. Record fluorescence at an excitation wavelength of 544 nm and emission wavelength of 590 nm using a microplate reader.
In the assays, cells are cultured with a test compound for approximately four days, the dye then is added to the cells and fluorescence of […] dye is detected after approximately four hours. Different types of cells can be utilized in the assays (e.g., HCT-116 human colorectal carcinoma cells, PC-3 human prostatic cancer cells and MiaPaca human pancreatic carcinoma cells). Anti-proliferative effects of representative compounds are provided hereafter

[11] = molecular target: PIM2 (Homo sapiens (Human), UniProt Q9P1W9); experiment: PIM2 IC50; format: biochemical; details: Table 45
[12] = HCT-116, read-out: HCT-116 (uM), cell proliferation modulatory activity, HCT-116, second column

recombinant human PIM1, sequence (P11309 whole entry): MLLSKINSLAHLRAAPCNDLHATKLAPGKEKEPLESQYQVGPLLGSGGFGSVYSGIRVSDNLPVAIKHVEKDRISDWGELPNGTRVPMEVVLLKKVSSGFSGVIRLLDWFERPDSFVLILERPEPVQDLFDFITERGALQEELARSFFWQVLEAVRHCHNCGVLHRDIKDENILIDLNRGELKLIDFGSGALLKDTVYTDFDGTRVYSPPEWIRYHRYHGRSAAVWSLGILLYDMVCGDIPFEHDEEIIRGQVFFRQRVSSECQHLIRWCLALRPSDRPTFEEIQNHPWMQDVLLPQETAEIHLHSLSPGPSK
PIM2, sequence (Q9P1W9 whole entry): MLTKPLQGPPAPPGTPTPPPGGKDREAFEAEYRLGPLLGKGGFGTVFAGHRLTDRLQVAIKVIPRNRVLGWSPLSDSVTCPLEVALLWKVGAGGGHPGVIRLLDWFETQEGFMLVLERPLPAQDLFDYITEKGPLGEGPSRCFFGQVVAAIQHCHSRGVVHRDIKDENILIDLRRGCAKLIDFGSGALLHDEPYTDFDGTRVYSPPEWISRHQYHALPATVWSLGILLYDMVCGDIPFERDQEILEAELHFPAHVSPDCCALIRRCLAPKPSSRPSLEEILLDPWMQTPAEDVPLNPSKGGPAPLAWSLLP

Structure (SMILES)	IC50 [1] [µM]	inhibition at 0.5 µM ([3]; cell-free) [%]	IC50 [5, 12] [µM]	IC50 [6] [µM]	IC50 [7] [nM]	IC50 ([3]; Table 45) [nM]	IC50 [8] [µM]	IC50 [9] [nM]	IC50 [10] [µM]	IC50 [11] [nM]	also measured
O=C(O)c1ccc2c(c1)nc(Nc1ccccc1)c1ccsc12	6.12	15.7	> 10	–	–	–	–	–	–	–	IC50 [2]: > 10 µM; IC50 ([3]; cell-free): 454 nM; IC50 [4]: 8.33 µM; IC50 ([5]; HCT-116, read-out: HCT-116 (uM), cell proliferation modulatory activity, HCT-116, first column): 10 µM
c1ccc(Nc2nc3cc(-c4nnc[nH]4)ccc3c3sccc23)cc1	7.6	-3.3	–	–	–	–	–	–	–	–	IC50 [2]: 6.26 µM; IC50 ([5]; HCT-116, HCT-116, second column, read-out: HCT-116 (uM), cell proliferation modulatory activity): 4.9 µM
CNC(=O)c1cccc(Nc2nc3cc(-c4nnn[nH]4)ccc3c3sccc23)c1	4.22	81.7	> 10	–	–	–	–	–	–	–	IC50 ([3]; cell-free): 329 nM
COC(=O)c1ccc2c(c1)nc(Nc1ccccc1)c1ccncc12	0.683	-3.02	–	–	–	–	–	–	–	–	–
COC(=O)c1ccc2c(c1)nc(Nc1cccc(OC)c1)c1ccncc12	3.4	19.4	–	–	–	–	–	–	–	–	–
O=C(O)c1ccc2c(c1)nc(Nc1ccc(F)c(Cl)c1)c1ncncc12	4.29	54.8	–	–	–	–	–	–	–	–	IC50 ([3]; cell-free): 368 nM
CNC(=O)c1cccc(Nc2nc3cc(C(=O)O)ccc3c3sccc23)c1	8.69	18.3	> 10	–	–	–	–	–	–	–	–
O=C(O)c1ccc2c(c1)nc(Nc1cc(F)cc(F)c1)c1ncncc12	2.59	80	4.05	–	–	–	–	–	–	–	IC50 [2]: 2.41 µM; IC50 ([3]; cell-free): > 1100 nM
Fc1cccc(Nc2nc3cc(-c4nnn[nH]4)ccc3c3cnccc23)c1	9.43	45	–	–	–	–	–	–	–	–	–
CNc1ncc2c(n1)c(Nc1ccccc1)nc1cc(C(=O)O)ccc12	0.728	20.8	2.99	–	–	–	–	–	–	–	IC50 [4]: > 10 µM
Fc1cc(Cl)cc(Nc2nc3c(-c4nnc[nH]4)cccc3c3cnccc23)c1	–	–	–	< 1	< 100	< 100	< 5	< 500	< 0.5	> 1100	–
NS(=O)(=O)c1cccc(Nc2nc3c(-c4nc[nH]n4)cccc3c3cnccc23)c1	–	–	–	> 10	< 500	< 100	> 10	< 1000	> 10	< 500	–
COc1cc(Nc2nc3c(-c4nc[nH]n4)cccc3c3cnccc23)ccc1F	–	–	–	> 10	< 500	< 100	< 5	< 5000	< 10	< 500	–
COCCNc1nc2c(-c3nc[nH]n3)cccc2c2cnccc12	–	–	–	< 10	< 100	< 100	< 10	< 100	< 5	< 500	–

Further lines, with some results ahead:

IC50 [1] [µM]	inhibition at 0.5 µM ([3]; cell-free) [%]	IC50 [5, 12] [µM]	IC50 [6] [µM]	IC50 [7] [nM]	IC50 ([3]; Table 45) [nM]	IC50 [8] [µM]	IC50 [9] [nM]	IC50 [10] [µM]	IC50 [11] [nM]	Structure (SMILES)	also measured
8.89	83.3	–	–	–	–	–	–	–	–	Clc1cccc(Nc2nc3cc(-c4nnn[nH]4)ccc3c3sccc23)c1	IC50 ([3]; cell-free): 345 nM
4.25	10.2	3.94	–	–	–	–	–	–	–	COC(=O)c1ccc2c(c1)nc(Nc1ccc(F)c(Cl)c1)c1ccncc12	–
5.86	84.4	> 10	–	–	–	–	–	–	–	O=C(O)c1ccc2c(c1)nc(Nc1cc(F)cc(F)c1)c1ccsc12	IC50 [2]: > 10 µM; IC50 ([3]; cell-free): 82 nM; IC50 [4]: 0.333 µM
3.2	96.1	–	–	–	–	–	–	–	–	O=C(O)c1ccc2c(c1)nc(Nc1cccc(F)c1)c1ccncc12	IC50 [2]: > 10 µM; IC50 ([3]; cell-free): 143 nM; IC50 [4]: 2.28 µM
6.97	46.8	> 10	–	–	–	–	–	–	–	O=C(NC1CC1)c1cccc(Nc2nc3cc(-c4nnn[nH]4)ccc3c3sccc23)c1	–
4.31	67.1	8.76	–	–	–	–	–	–	–	O=C(O)c1ccc2c(c1)nc(Nc1cc(Cl)cc(Cl)c1)c1ccsc12	–
–	–	–	< 10	< 500	< 100	> 10	< 1000	> 10	< 500	c1ccc(CCNc2nc3c(-c4nc[nH]n4)cccc3c3cnccc23)cc1	–
–	–	–	> 10	< 500	< 100	< 5	< 1000	< 1	< 500	Fc1cc(F)cc(Nc2nc3c(-c4nnc[nH]4)cccc3c3cnccc23)c1	–
–	–	–	> 30	< 100	< 100	< 5	< 100	< 1	< 500	NC(=O)c1cccc2c1nc(Nc1ccc(F)cc1)c1ccncc12	–
–	–	–	> 10	< 500	< 100	> 10	< 100	> 10	< 100	FC(F)(F)Oc1ccccc1Nc1nc2c(-c3nnc[nH]3)cccc2c2cnccc12	–
